Measured values published in PMC4212957, “The serodominant secreted effector protein of Salmonella, SseB, is a strong CD4 antigen containing an immunodominant epitope presented by diverse HLA class II alleles” (Immunology, 2014).

How the values were obtained:
[1] = test system: draining lymph node cells of HLA-DR1 transgenic mice; assay: Murine IFN-γ ELISpot, HLA-DR1 transgenic mice primed with SseB; settings: mouse, in vivo
Source text: Mice transgenic for HLA-DR1 (that is, HLA-DRA1*0101/HLA-DRB1*0101) and HLA-DR4 (that is, HLA-DRA1*0101/HLA-DRB1*0401)[24]–[26] were bred and housed in the Centre for Biological Services at the Hammersmith campus, Imperial College London, UK, in accordance with Home Office regulations and College ethics review. Both transgenic lines are maintained on a C57BL/6 background as homozygotes for knockout of murine MHC Class II H2-Aβ.[27]
HLA-DR1 or HLA-DR4 transgenic mice were primed, by subcutaneous injection into the footpad, with 25 μg of recombinant SseB protein administered as a 1 : 1 emulsion with TiterMax® Gold (CytRx Corporation, Los Angeles, CA). Ten days after priming, popliteal draining lymph nodes were harvested and stimulated, in triplicate, at 2 × 10^5 cells per well with 25 μg of SseB peptide or recombinant protein in pre-coated murine IFN-γ ELISpot plates (2BScientific, Upper Heyford, Oxfordshire, UK). Culture medium was RPMI-1640 containing 2 mM L-glutamine, 50 U/ml penicillin G, 50 μg/ml streptomycin sulphate, 50 μM β-mercaptoethanol and 10% fetal calf serum. Cells were cultured at 37° and in 5% CO2 for 72 hr before assay development using a biotinylated anti-IFN-γ antibody, a horseradish peroxidase detection antibody and TMB substrate (2BScientific). Developed plates were left to dry before spot counting using an AID ELISpot reader (Autoimmun Diagnostika GMBH). Positive epitopes for a given transgenic line were defined as those where more than half of assayed animals gave a greater number of spot-forming cells than 2 SD over the mean of the no protein/peptide control.
Fig 1 Definition of HLA-DR specific T-cell epitopes in DR1 and DR4 transgenic mice. (a) HLA-DR1 (n = 5) and (b) HLA-DR4 (n = 6) mice were footpad primed with ssEB protein in combination with TiterMax® Gold adjuvant. Draining lymph node (DLN) cells were assayed by ELISpot at day 10 for interferon-γ (IFN-γ) T-cell responses to ssEB peptides and protein. A peptide was defined as containing a T-cell epitope for DR1 or DR4 HLA molecules if more than half of the mice assayed gave a greater number of spot-forming cells than 2 SD over the mean of the no peptide/protein control. The 2 SD value for each transgenic line is shown by a dotted line.

[2] = test system: HLA-DR heterodimers; assay: Breadth of binding across the HLA-DR panel; parameters: species or system human; settings: of nine HLA-DR molecules screened; competitive ELISA
Experimental: HLA-DR heterodimers were purified from homozygous Epstein–Barr virus B-lymphoblastoid cell lines (HPA Culture Collections, Salisbury, UK) by affinity chromatography with the monomorphic HLA-DRα monoclonal antibody, L243.[29],[30] Binding of the SseB peptide panel to the HLA-DR molecules HLA-DRB1*01:01, 03:01, 04:01, 07:01, 09:01, 11:01, 12:02, 15:01, 15:02 was assessed by competitive ELISA, as previously described, using an automated workstation.[29],[30] We evaluated the peptide concentration able to prevent binding of 50% of the labelled peptide (IC50). Data were expressed as relative affinity: ratio of the IC50 of the peptide to the IC50 of the reference peptide, which is a high binder to the HLA class II molecule. Unlabelled forms of the biotinylated peptides were used as reference peptides.
The HLA-DR peptide-binding assay used here was designed to give a strong coverage of commonly expressed alleles across diverse populations. For example, the DR1, 3, 4, 7, 11 and 1501 heterodimers cumulatively cover approximately 80% of individuals in Caucasian populations, whereas DR9, DR1202 and DR1502 are rare in Caucasian populations but are found in around a third of individuals in many South East Asian populations. Of the 18 peptides encompassing the SseB overlapping peptide library, 15 show significant HLA-DR binding (Table2). Eight peptides were able to bind specifically to only one or two alleles, but the seven other binders were able to bind more heterodimers. It is noteworthy that there are three peptides, p2, p11 and p18, with the property of binding 6, 7 and 8 different HLA-DR heterodimers, respectively. They span HLA-DRB sequences with rather diverse peptide-binding pockets.

[3] = molecular target: HLA-DRB1*04:01 (Homo sapiens, UniProt P01903+P01911, A100K/A169T/F76Y/I96L/K127E/L162R/M171V/N62H/P40V/Q125Y/R42H/S133A/S149N/S66Y/V115G/V209L/W38E); settings: competitive ELISA; ratio IC50 of peptide / IC50 of reference peptide HA 306–318; lower = higher affinity; ratio 20 or less high, 20–100 moderate; three independent experiments
[4] = molecular target: HLA-DRB1*07:01 (Homo sapiens, UniProt P01903+P01911, A100R/A102G/A103Q/D57E/D86V/E43K/F76Y/K127E/L162R/M171V/P40G/Q125H/Q99D/R33Q/R42Y/R54Q/S133A/S66F/T210M/V115G/Y107V/Y59L/Y89S); settings: competitive ELISA; ratio IC50 of peptide / IC50 of reference peptide HA 306–318; lower = higher affinity; ratio 20 or less high, 20–100 moderate; three independent experiments
[5] = molecular target: HLA-DRB1*11:01 (Homo sapiens, UniProt P01903+P01911, A100R/A169T/A87E/I96F/K41T/L162R/M171V/P40S/Q125H/Q178H/Q39Y/Q99D/R42S/S66Y/T262R/V115G/W38E); settings: competitive ELISA; ratio IC50 of peptide / IC50 of reference peptide HA 306–318; lower = higher affinity; ratio 20 or less high, 20–100 moderate; three independent experiments
HLA-DRB1*11:01, sequence (P01903 26-254, other chains not shown): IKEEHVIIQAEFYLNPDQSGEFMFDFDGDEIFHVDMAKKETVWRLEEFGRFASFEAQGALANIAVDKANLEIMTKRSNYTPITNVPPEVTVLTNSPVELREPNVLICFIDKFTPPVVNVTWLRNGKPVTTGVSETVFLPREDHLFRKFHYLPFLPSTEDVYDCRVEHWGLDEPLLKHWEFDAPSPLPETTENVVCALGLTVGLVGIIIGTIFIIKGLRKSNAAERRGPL

Substance | IFN-γ ELISpot recall response / CD4 epitope in HLA-DR1 transgenic mice [1] | number of different HLA-DR heterodimers bound [2] | Relative binding affinity of peptide to HLA-DR molecules DRB1*0401 [3] | Relative binding affinity of peptide to HLA-DR molecules DRB1*0701 [4] | Relative binding affinity of peptide to HLA-DR molecules DRB1*1101 [5]
2: SseB overlapping library peptide, residues 11–30 (QNPIVFKNSFGVSNADTGSQ) [Peptide 2] | carry HLA-DR1 restricted immunodominant CD4 epitopes | 6 | 9 | 14 | > 278
11: SseB overlapping library peptide, residues 101–120 (EDVIKYMRDNGILIDGMTID) [Peptide 11] | carry HLA-DR1 restricted immunodominant CD4 epitopes | 7 | 17 | 2 | > 278
AVLTQLTGLISKWGEISSMIAQKTYS [Peptide 18] | carry HLA-DR1 restricted immunodominant CD4 epitopes | 8 | 2 | 12 | 7
